Earlier results on one compound are cited in patent publication US7807404B2, “Mutated truncated mt-pfkA gene for the synthesis of active shorter fragment of 6-phosphofructo-1-kinase” (Kemijski Institut, priority 2006, dated 2010).

Series [1] relates to PFK1. As to conditions: citrate 10 mM.
For series [2], the system named is PFK1 with 8 amino acid residues cleaved from the C-terminal part.
Series [3] addresses T1, PFK1 (Oryctolagus cuniculus, UniProt P00511).
T1 construct: the enzyme, isolated from the rabbit muscle; host or cells: rabbit muscle
T1 sequence (P00511 2-780 limits assumed): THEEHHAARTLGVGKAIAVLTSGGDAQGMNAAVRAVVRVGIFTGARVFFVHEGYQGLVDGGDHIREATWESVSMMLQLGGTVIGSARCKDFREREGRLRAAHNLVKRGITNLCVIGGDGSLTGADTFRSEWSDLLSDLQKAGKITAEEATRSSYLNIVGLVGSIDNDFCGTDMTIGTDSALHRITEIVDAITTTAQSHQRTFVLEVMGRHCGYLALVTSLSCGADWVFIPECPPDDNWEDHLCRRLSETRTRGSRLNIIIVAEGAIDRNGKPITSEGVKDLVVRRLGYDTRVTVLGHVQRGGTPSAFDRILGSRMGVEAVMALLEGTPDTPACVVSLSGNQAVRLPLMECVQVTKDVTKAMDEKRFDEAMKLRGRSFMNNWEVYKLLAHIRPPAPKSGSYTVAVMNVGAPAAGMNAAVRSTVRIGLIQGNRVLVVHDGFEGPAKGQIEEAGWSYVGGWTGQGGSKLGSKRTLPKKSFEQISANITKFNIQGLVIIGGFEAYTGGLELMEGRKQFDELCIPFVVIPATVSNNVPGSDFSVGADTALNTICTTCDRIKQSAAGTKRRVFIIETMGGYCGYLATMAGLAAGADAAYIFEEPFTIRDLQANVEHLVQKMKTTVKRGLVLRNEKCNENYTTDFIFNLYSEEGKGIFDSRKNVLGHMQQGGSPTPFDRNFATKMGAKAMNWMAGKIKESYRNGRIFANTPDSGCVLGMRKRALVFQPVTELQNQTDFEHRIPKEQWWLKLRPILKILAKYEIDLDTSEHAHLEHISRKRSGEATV

Series [4] concerns the target T2, PFK1 (Aspergillus niger, UniProt P78985).
T2 construct: The PFK1 isolated from Aspergillus niger cells; host or cells: Aspergillus niger cells
The conditions noted are these: citrate 10 mM.

T2 sequence (P78985 whole entry): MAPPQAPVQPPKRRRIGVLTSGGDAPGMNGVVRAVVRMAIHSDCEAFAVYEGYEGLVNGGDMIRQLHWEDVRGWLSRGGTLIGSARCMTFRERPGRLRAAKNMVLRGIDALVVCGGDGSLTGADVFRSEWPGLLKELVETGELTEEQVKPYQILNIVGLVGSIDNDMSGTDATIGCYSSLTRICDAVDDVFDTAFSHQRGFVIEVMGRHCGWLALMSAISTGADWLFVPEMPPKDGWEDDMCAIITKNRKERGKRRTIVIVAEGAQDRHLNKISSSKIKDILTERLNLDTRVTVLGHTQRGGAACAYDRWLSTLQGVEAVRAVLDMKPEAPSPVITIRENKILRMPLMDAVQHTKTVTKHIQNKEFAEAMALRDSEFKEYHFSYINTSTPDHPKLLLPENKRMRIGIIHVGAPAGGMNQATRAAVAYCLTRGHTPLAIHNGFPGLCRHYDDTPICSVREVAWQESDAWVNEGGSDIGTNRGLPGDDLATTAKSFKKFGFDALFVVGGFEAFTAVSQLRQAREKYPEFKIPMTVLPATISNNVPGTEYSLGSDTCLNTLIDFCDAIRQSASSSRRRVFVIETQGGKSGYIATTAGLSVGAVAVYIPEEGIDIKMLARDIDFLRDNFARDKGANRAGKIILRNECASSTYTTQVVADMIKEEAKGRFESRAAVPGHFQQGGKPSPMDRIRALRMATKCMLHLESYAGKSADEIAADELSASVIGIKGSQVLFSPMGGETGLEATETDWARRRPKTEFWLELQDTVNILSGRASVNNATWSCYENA

`O=C(O)CC(O)(CC(=O)O)C(=O)O` [citrate]: the maximal velocity retained in the series on PFK1 [1] was 20%. Also, the “citrate concentration at which the enzyme lost its activity” value in series [2] is recorded as 10 mM. In addition, the “citrate concentration at which the enzyme was completely inactivated” value on PFK1 [3] was 2.5 mM. Besides, the “effect on catalytic activity” value on PFK1 [4] is “almost prevented its catalytic activity”.
